The record followed here is US12344611B2, “Bridged cycloformylpyridine derivatives and uses thereof” (BroadenBio Co., Ltd., priority 2019, dated 2025).

Experiment [1] concerns Hep 3B hepatoma cells. The experiment in a line: In vitro cell proliferation assay (CellTiter-Glo, CTG), Hep 3B. Type of experiment: cell-based, human. The following applies: Hep 3B cells. The method, then: (§1) In Vitro Cell Proliferation Assay of FGFR4 (CellTiter-Glo Luminescent Cell Viability Assay, CTG Assay)
(§2) Hep 3B hepatoma cells were purchased from Cell Resource Center of Peking Union College, and HuH-7 hepatoma cells were purchased from Shanghai Biological Technology Co., Ltd. enzyme research. The cells were prepared at a concentration of 3×10^4/mL, which was then added with 100 μL to each well of a 96-well transparent flat-bottom black-walled plate to make 3000 cells per well. Incubate overnight at 37° C. in 5% CO2 incubator. Dilute a compound and add it to the wells having the cells, then add cell culture medium to 200 μL per well. Put in CO2 incubator for incubation. After 96 hours, 100 μL of culture medium was removed from each well, 100 μL of CTG was added, and the 96-well plate was placed on a shaker for 10 minutes, and placed in the shade at room temperature for 45 minutes. Data was read out by SoftMax Pro i3X Microplate Reader of MD, analyzed by the software GraphPad Prism 5.0, and S-shaped dose-response curve was drawn, then the EC50 values were calculated.
A general note: Cellular ATP, detected with luciferase, serves as a proxy for viable cell number.

The target in experiment [2] is FGFR4 (Homo sapiens, UniProt P22455). In words: In vitro biochemical kinase analysis of FGFR4 (HTRF KinEASE-TK). To be noted: HTRF kinase assay. Here is the method: In Vitro Biochemical Kinase Analysis of FGFR4
Sequence of FGFR4 (P22455 22-802): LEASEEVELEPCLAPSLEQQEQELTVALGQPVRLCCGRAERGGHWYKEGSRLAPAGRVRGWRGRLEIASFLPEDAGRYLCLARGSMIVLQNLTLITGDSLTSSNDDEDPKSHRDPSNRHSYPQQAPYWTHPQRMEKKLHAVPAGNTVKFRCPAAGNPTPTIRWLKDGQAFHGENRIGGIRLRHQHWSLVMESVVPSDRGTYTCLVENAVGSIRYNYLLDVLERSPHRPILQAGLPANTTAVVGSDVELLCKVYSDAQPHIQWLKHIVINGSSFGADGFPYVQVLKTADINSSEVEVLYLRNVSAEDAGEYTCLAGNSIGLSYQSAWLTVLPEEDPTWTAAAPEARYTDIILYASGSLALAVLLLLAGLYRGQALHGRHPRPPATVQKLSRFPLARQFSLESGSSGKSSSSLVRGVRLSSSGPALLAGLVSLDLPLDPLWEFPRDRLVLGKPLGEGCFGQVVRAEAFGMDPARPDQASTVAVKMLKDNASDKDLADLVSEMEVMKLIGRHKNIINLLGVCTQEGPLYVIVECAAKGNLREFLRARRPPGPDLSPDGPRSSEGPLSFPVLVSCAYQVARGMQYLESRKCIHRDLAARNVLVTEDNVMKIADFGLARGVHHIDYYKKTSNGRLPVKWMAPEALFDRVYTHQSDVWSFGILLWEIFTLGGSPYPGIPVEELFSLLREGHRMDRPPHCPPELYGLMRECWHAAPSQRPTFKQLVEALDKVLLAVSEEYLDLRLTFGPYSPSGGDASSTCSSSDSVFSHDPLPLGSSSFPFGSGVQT
FGFR4 protein kinase detection kit was purchased from Cisbio (HTRF KinEASE-TK kit). Prepare 1× kinase reaction buffer. Transfer 10 nL of a diluted compound to each well of a reaction plate (784075, Greiner) with an Echo 550, and seal the plate with sealing film. The reaction plate was centrifuged at 1000 g for 1 minute. Prepare 2×FGFR4 using 1× kinase reaction buffer, add 5 μL of kinase to each well of the reaction plate, seal the plate, centrifuge at 1000 g for 30 seconds, and incubate it at room temperature for 10 minutes. Prepare a mixture of 2×TK-substrate-biotin and ATP using 1× kinase reaction buffer, add 5 μL of TK-substrate-biotin/ATP mixture to the reaction plate, seal the plate with sealing film, centrifuge at 1000 g for 30 seconds, and react at room temperature for 40 minutes. Prepare 2×Sa-XL 665 and TK-antibody-Cryptate mixture using HTRF detection buffer, add 10 μL Sa-XL 665 and TK-antibody-Cryptate mixture to each well, centrifuge at 1000 g for 30 seconds, and react at room temperature for 1 hour. Envision 2104 read fluorescence signals at 615 nm (Cryptate) and at 665 nm (XL665). IC50 of the compound was calculated using the GraphPad nonlinear fitting formula.
(In general: In TR-FRET formats the signal depends on donor and acceptor labels being close together.)

Experiment [3] deals with HuH-7 hepatoma cells. The experiment in a line: In vitro cell proliferation assay (CellTiter-Glo, CTG), HuH-7. Type of experiment: cell-based. The following applies: HuH-7 cells. The method, then:
as §1, §2

Consider `CO[C@@H]1CCC[C@H]1Nc1cc(NC(=O)N2c3nc(C=O)ccc3C3(F)CC2C3)ncc1C#N` (relative stereo) [Compound 19, N-(5-cyano-4-(((trans)-2-methoxycyclopentyl)amino)pyridin-2-yl)-4-fluoro-7-formyl-3,4-dihydro-2,4-methylene-1,8-naphthyridine-1(2H)-carboxamide], for which the EC50 in experiment [1] (Homo sapiens, Hep3B, 96 h) is 6 nM; in experiment [3] (Homo sapiens, Huh-7, 96 h), 31.6 nM. The same compound returned an IC50 in experiment [2] of 0.8 nM.
On to `N#Cc1cnc(NC(=O)N2c3nc(C=O)ccc3C3(F)CC2C3)cc1N[C@@H]1CCC[C@H]1O` (relative stereo) [Compound 20, N-(5-cyano-4-(((trans)-2-hydroxycyclopentyl)amino)pyridin-2-yl)-4-fluoro-7-formyl-3,4-dihydro-2,4-methylene-1,8-naphthyridine-1(2H)-carboxamide], for which the EC50 was found to be 1.2 nM in experiment [1] (Homo sapiens, Hep3B, 96 h) and 24 nM in experiment [3] (Homo sapiens, Huh-7, 96 h). For the same compound, the IC50 in experiment [2] came to 0.6 nM.
As for `CO[C@@H]1CCC[C@H]1Nc1cc(NC(=O)N2c3nc(C=O)c(CN4CCN(C)CC4=O)cc3C3CC2C3)ncc1C#N` (relative stereo) [Compound 26, N-(5-cyano-4-(((trans)-2-methoxycyclopentyl)amino)pyridin-2-yl)-7-formyl-6-((4-methyl-2-oxopiperazin-1-yl)methyl)-3,4-dihydro-2,4-methylene-1,8-naphthyridine-1(2H)-carboxamide], the EC50 in experiment [1] (Homo sapiens, Hep3B, 96 h) was found to be 1.3 nM; in experiment [3] (Homo sapiens, Huh-7, 96 h), 1 nM. This compound also showed an IC50 in experiment [2] of 0.3 nM.
For `CO[C@@H]1CCC[C@H]1Nc1cc(NC(=O)N2c3nc(C=O)ccc3C3(NC(=O)CN(C)C)CC2C3)ncc1C#N` (relative stereo) [Compound 33, N-(5-cyano-4-(((trans)-2-methoxycyclopentyl)amino)pyridin-2-yl)-4-(2-(dimethylamino)acetamido)-7-formyl-3,4-dihydro-2,4-methylene-1,8-naphthyridine-1(2H)-carboxamide] the same measures were 0.3 nM, 0.08 nM and 0.3 nM.
Regarding `COC1CCCC1Nc1cc(NC(=O)N2c3nc(C=O)c(CN4CCN(C)CC4=O)cc3C3(F)CC2C3)ncc1C#N` (single isomer, unassigned) [Compound 11-P1, N-(5-cyano-4-(((trans)-2-methoxycyclopentyl)amino)pyridin-2-yl)-4-fluoro-7-formyl-64(4-methyl-2-oxopiperazin-1-yl)methyl)-3,4-dihydro-2,4-methylene-1,8-naphthyridine-1(2H)-carboxamide], the EC50 in experiment [1] (96 hours) came out at 5.6 nM; in experiment [3] (96 hours) it was 0.2 nM. The same compound showed an IC50 in experiment [2] of 1.3 nM.
As for `COC1CCCC1Nc1cc(NC(=O)N2c3nc(C=O)c(CN4CCN(C)CC4=O)cc3C3(F)CC2C3)ncc1C#N` (single isomer, unassigned) [Compound 11-P2, N-(5-cyano-4-(((trans)-2-methoxycyclopentyl)amino)pyridin-2-yl)-4-fluoro-7-formyl-64(4-methyl-2-oxopiperazin-1-yl)methyl)-3,4-dihydro-2,4-methylene-1,8-naphthyridine-1(2H)-carboxamide], the values for the EC50 in experiment [1] (96 hours) and in experiment [3] (96 hours) were 32.1 nM and 73.1 nM, respectively. In addition, the IC50 in experiment [2] stood at 9.8 nM.
For the compound `CN1CCN(Cc2cc3c(nc2C=O)N(C(=O)Nc2cc(NC4CCCC4O)c(C#N)cn2)C2CC3(F)C2)C(=O)C1` (stereo not drawn) [Compound 17, N-(5-cyano-4-(((trans)-2-hydroxycyclopentyl)amino)pyridin-2-yl)-4-fluoro-7-formyl-6-((4-methyl-2-oxopiperazin-1-yl)methyl)-3,4-dihydro-2,4-methylene-1,8-naphthyridine-1(21-1)-carboxamide], half-maximal inhibition in experiment [2] (IC50) was put at 0.7 nM. The compound also showed an EC50 in experiment [3] (Homo sapiens, Huh-7, 96 h) of 0.6 nM.
`N#Cc1cnc(NC(=O)N2c3nc(C=O)ccc3C3(F)CC2C3)cc1NC1CNC1` [Compound 23, N-(5-cyano-4-(azetidin-3-ylamino)pyridin-2-yl)-7-formyl-4-fluoro-3,4-dihydro-2,4-methylene-1,8-naphthyridine-1(2H)-carboxamide]: the EC50 in experiment [1] (Homo sapiens, Hep3B, 96 h) was determined as 102 nM.
In experiment [2], `COCCNc1cc(NC(=O)N2c3nc(C=O)ccc3C3(NC(=O)CN(C)C)CC2C3)ncc1C#N` [Compound 30, N-(5-cyano-4-((2-methoxyethyl)amino)pyridin-2-yl)-4-(2-(dimethylamino)acetamido)-7-formyl-3,4-dihydro-2,4-methylene-1,8-naphthyridine-1(2H)-carboxamide] came in with an IC50 of 1.4 nM. The compound also yielded an EC50 in experiment [3] (Homo sapiens, Huh-7, 96 h) of 0.8 nM.
On to `COCCNc1cc(NC(=O)N2c3nc(C=O)ccc3C3(N(C)C4CCOC4)CC2C3)ncc1C#N` (stereo not shown) [Compound 34, N-(5-cyano-4-((2-methoxyethyl)amino)pyridin-2-yl)-4-(methyl(tetrahydrofuran-3-yl)amino)-7-formyl-3,4-dihydro-2,4-methylene-1,8-naphthyridine-1(2H)-carboxamide], for which the EC50 in experiment [1] (Homo sapiens, Hep3B, 96 h) worked out at 10.7 nM. In experiment [2], this compound came in with an IC50 of 1.2 nM.
`COCCNc1cc(NC(=O)N2c3nc(C=O)ccc3C3(OCCN4CCCC4)CC2C3)ncc1C#N` [Compound 35, N-(5-cyano-4-((2-methoxyethyl)amino)pyridin-2-yl)-4-(2-(pyrrolidin-1-yl)ethoxy)-7-formyl-3,4-dihydro-2,4-methylene-1,8-naphthyridine-1(2H)-carboxamide] displayed an EC50 in experiment [1] (Homo sapiens, Hep3B, 96 h) of 2.2 nM. In addition, the IC50 in experiment [2] worked out at 1.1 nM.
In experiment [1] (Homo sapiens, Hep3B, 96 h), `CCC(=O)NC12CC(C1)N(C(=O)Nc1cc(NCCOC)c(C#N)cn1)c1nc(C=O)ccc12` [Compound 37, N-(5-cyano-4-((2-methoxyethyl)amino)pyridin-2-yl)-4-propionamido-7-formyl-3,4-dihydro-2,4-methylene-1,8-naphthyridine-1(2H)-carboxamide] yielded an EC50 of 6.4 nM. Moreover, the half-inhibitory concentration (IC50) in experiment [2] worked out at 2.5 nM.
In the case of `COCCNc1cc(NC(=O)N2c3nc(C=O)ccc3C3(N(C)C(=O)c4cnn(C)c4)CC2C3)ncc1C#N` [Compound 42], it took 7.2 nM to reach a half-maximal effect in experiment [1] (Homo sapiens, Hep3B, 96 h) (EC50). Further, inhibition in experiment [2] was half-maximal at 3.2 nM (IC50).
The compound `COCCNc1cc(NC(=O)N2c3nc(C=O)ccc3C3(N4CCN(C)CC4=O)CC2C3)ncc1C#N` [Compound 43, N-(5-cyano-4-((2-methoxyethyl)amino)pyridin-2-yl)-7-formyl-4-(4-methyl-2-oxopiperazin-1-yl)-3,4-dihydro-2,4-methylene-1,8-naphthyridine-1(2H)-carboxamide] had an EC50 in experiment [1] (Homo sapiens, Hep3B, 96 h) of 6.5 nM. The IC50 in experiment [2] worked out at 3.1 nM.
On to `COCCNc1cc(NC(=O)N2c3nc(C=O)ccc3C3(NC(=O)N4CCOCC4)CC2C3)ncc1C#N` [Compound 44, N-(5-cyano-4-((2-methoxyethyl)amino)pyridin-2-yl)-7-formyl-4-(morpholine-4-carboxamido)-3,4-dihydro-2,4-methylene-1,8-naphthyridine-1(2H)-carboxamide], for which, in experiment [1] (Homo sapiens, Hep3B, 96 h), the half-maximal effective concentration (EC50) turned out to be 12.3 nM. In experiment [2], this compound returned an IC50 of 2.5 nM.
For `COCCNc1cc(NC(=O)N2c3nc(C=O)ccc3C3(OCC(=O)N4CCOCC4)CC2C3)ncc1C#N` [Compound 45, N-(5-cyano-4-((2-methoxyethyl)amino)pyridin-2-yl)-4-(2-(morpholin-4-yl)-2-oxoethoxy)-7-formyl-3,4-dihydro-2,4-methylene-1,8-naphthyridine-1(2H)-carboxamide], the EC50 in experiment [1] (Homo sapiens, Hep3B, 96 h) stood at 11.4 nM. The IC50 in experiment [2] was 1.8 nM.
In experiment [1] (Homo sapiens, Hep3B, 96 h), `COCCNc1cc(NC(=O)N2c3nc(C=O)ccc3C3(NC(=O)CO)CC2C3)ncc1C#N` [Compound 47, N-(5-cyano-4-((2-methoxyethyl)amino)pyridin-2-yl)-4-(2-hydroxyacetamido)-7-formyl-3,4-dihydro-2,4-methylene-1,8-naphthyridine-1(2H)-carboxamide] registered an EC50 of 17.8 nM. The compound also came in with an IC50 in experiment [2] of 2.8 nM.
On to `COCCNc1cc(NC(=O)N2c3nc(C=O)ccc3C3(NC(=O)c4ccccn4)CC2C3)ncc1C#N` [Compound 48, N-(5-cyano-4-((2-methoxyethyl)amino)pyridin-2-yl)-4-(pyridine-2-carboxamido)-7-formyl-3,4-dihydro-2,4-methylene-1,8-naphthyridine-1(2H)-carboxamide], for which 1.6 nM corresponded to half-maximal inhibition in experiment [2] (IC50).
The compound `COCCNc1cc(NC(=O)N2c3nc(C=O)ccc3C3(NC(=O)c4ccc[nH]4)CC2C3)ncc1C#N` [Compound 49] displayed an IC50 in experiment [2] of 1.6 nM.
As for `COCCNc1cc(NC(=O)N2CCCc3cc(CN4CCN(C)CC4=O)c(C=O)nc32)ncc1C#N` [Positive Control Compound, N-(5-cyano-4-((2-methoxyethyl)amino)pyridin-2-yl)-7-formyl-6-((4-methyl-2-oxopiperazin-1-yl)methyl)-3,4-dihydro-1,8-naphthyridine-1(2H)-carboxamide, reference compound], the EC50 in experiment [1] (Homo sapiens, Hep3B, 96 h) is 15 nM; in experiment [3] (Homo sapiens, Huh-7, 96 h) it was 52 nM.

The term EC50 denotes the concentration giving half of the maximal effect. Low readings indicate higher potency in that assay, high ones lower potency in that assay. A word on the IC50: it is the concentration at which inhibition is half-maximal.
